Measurements taken from patent US7687609B2, “Galectin-glycosaminoglycan complex and method for controlling galectin activity” (National Institute of Advanced Industrial Science and …, priority 2006, dated 2010).
“Also recorded” adds a separate entry of the source.

Columns and labels:
Format in all cases: binding
Galectin-1 = target: T1, Galectin-1 (Homo sapiens, UniProt P09382); test: FAC affinity test on galectin-immobilized column; conditions: for V − V0 Value: pyridyl-aminated carbohydrate, galectin-1 immobilized 0.8 mg/ml, less than 5 μl = below interaction detection limit
T1 construct: made in house
Procedure: (§1) Various galectin molecules-immobilized columns were prepared by the method described by Nakamura S, Yagi F, Totani K, Ito γ and Hirabayashi J in FEBS J., 272, 2784-2799 (2005), using NHS Sepharose (manufactured by Amersham Bioscience) as the carrier for immobilizing galectin molecules and in accordance with the instructions attached thereto (put in parentheses is immobilization concentration, mg galectin/ml carrier).
(§2) Each galectin molecule was immobilized onto the carrier at the following concentration; galectin-1 (0.8 mg/ml), galectin-3 (0.5 mg/ml), galectin-8N (3.6 mg/ml), galectin-8C (4.0 mg/ml), galectin-9N (3.6 mg/ml), galectin-9C (3.0 mg/ml). The carrier on which each galectin was immobilized was charged into a stainless steel miniature column (2 mm in inner diameter, 10 mm in length; manufactured by Shimadzu Corp.).
(§3) A high performance liquid chromatography (HPLC) system was equipped with a galectin molecule-immobilized column, and the test was carried out by the method described in Nakamura S, Yagi F, Totani K, Ito γ and Hirabayashi J in FEBS J., 272, 2784-2799 (2005).
(§4) As the negative control sample, pyridyl-aminated N-acetylglucosamine (PA-GlcNAc, manufactured by Takara Bio, pyridyl-aminated glycosaminoglycan-oligosaccharide sample control) or pyridyl-aminated pullulan (prepared by carrying out pyridylamination of standard pullulan manufactured by Shodex, pyridyl-aminated glycosaminoglycan polysaccharide sample control) was used, and a V−V0 value was calculated from their eluate volume (V0 value) measured by fluorescence detection and the eluate volume (V value) of the sample, namely pyridyl-aminated glycosaminoglycan carbohydrate, and this was used as the index of interaction strength (Protein, Nucleic Acid and Enzyme, 48(8), 1206-1212 (2003)).
(§5) V−V0 values of pyridyl-aminated glycosaminoglycans (HA, CH, DN, NAH, CSA, CSB, CSC, CSD, CSE, KS-I and KS-II) were calculated based on PA-GlcNAc, and V−V0 values of pyridyl-aminated glycosaminoglycan-oligosaccharides (G2K1, G1L1, G4L4, L2L2, L2L4, L4L4, SL2L4 and CH3 to CH12) based on pyridyl-aminated pullulan, respectively.
(§6) In this connection, when the calculated value of the V−V0 value was less than 5 μl, it was regarded as less than the interaction detection limit in this example.

Galectin-3 = target: T2, Galectin-3 (Homo sapiens, UniProt P17931); test: FAC affinity test on galectin-immobilized column; conditions: for V − V0 Value: pyridyl-aminated carbohydrate, galectin-3 immobilized 0.5 mg/ml, less than 5 μl = below interaction detection limit; for binding to galectin-3 (in words): text statement on the FAC results
T2 construct: made in house
Procedure: as §1, §2, §3, §4, §5, §6

Galectin-9N = target: T3, Galectin-9N (Homo sapiens, UniProt O00182); test: FAC affinity test on galectin-immobilized column; conditions: for V − V0 Value: pyridyl-aminated carbohydrate, galectin-9N immobilized 3.6 mg/ml, less than 5 μl = below interaction detection limit; for binding to galectin-9N (in words): text statement on the FAC results
T3 construct: N and C respectively represent N-terminal side carbohydrate-recognition domain and C-terminal side carbohydrate-recognition domain; made in house
Procedure: as §1, §2, §3, §4, §5, §6

Galectin-8C = target: T4, Galectin-8C (Homo sapiens, UniProt O00214); test: FAC affinity test on galectin-immobilized column; conditions: pyridyl-aminated carbohydrate; galectin-8C immobilized 4.0 mg/ml; less than 5 μl = below interaction detection limit
T4 construct: N and C respectively represent N-terminal side carbohydrate-recognition domain and C-terminal side carbohydrate-recognition domain; made in house
T4 sequence (O00214 187-317 limits assumed): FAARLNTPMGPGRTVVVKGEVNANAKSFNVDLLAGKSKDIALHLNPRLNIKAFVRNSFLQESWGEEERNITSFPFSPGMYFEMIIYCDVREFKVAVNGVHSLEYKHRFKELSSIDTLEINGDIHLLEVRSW
Procedure: as §1, §2, §3, §4, §5, §6

Galectin-9C = target: T5, Galectin-9C (Homo sapiens, UniProt O00182); test: FAC affinity test on galectin-immobilized column; conditions: for V − V0 Value: pyridyl-aminated carbohydrate, galectin-9C immobilized 3.0 mg/ml, less than 5 μl = below interaction detection limit; for binding to galectin-9C (in words): text statement on the FAC results
T5 construct: N and C respectively represent N-terminal side carbohydrate-recognition domain and C-terminal side carbohydrate-recognition domain; made in house
Procedure: as §1, §2, §3, §4, §5, §6

Galectin-8N = target: T6, Galectin-8N (Homo sapiens, UniProt O00214); test: FAC affinity test on galectin-immobilized column; conditions: for V − V0 Value: pyridyl-aminated carbohydrate, galectin-8N immobilized 3.6 mg/ml, less than 5 μl = below interaction detection limit
T6 construct: N and C respectively represent N-terminal side carbohydrate-recognition domain and C-terminal side carbohydrate-recognition domain; made in house
T6 sequence (O00214 19-152 limits assumed): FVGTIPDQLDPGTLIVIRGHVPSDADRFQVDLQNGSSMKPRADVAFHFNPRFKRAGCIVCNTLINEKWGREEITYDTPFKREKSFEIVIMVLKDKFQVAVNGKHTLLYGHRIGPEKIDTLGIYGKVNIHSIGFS
Procedure: as §1, §2, §3, §4, §5, §6

[1] = tested on: tested galectin molecules (galectin-1, 3, 8N, 8C, 9N and 9C); test: FAC affinity test, statements on the whole panel of tested galectins; conditions: Table 3, whole galectin panel
Description: Using FAC, the present inventors have conducted a comprehensive analysis of the interactions between various galectin molecules (galectin-1, 3, 8N, 8C, 9N and 9C; N and C respectively represent N-terminal side carbohydrate-recognition domain and C-terminal side carbohydrate-recognition domain)-immobilized columns and various fluorescence-labeled glycosaminoglycan molecules. As a result, novel affinity was found by the combination of specific galectin molecules and glycosaminoglycan molecules to thereby accomplish the present invention.
as §3, §4, §6

[2] = text statement on the FAC results

T1 sequence (P09382 whole entry): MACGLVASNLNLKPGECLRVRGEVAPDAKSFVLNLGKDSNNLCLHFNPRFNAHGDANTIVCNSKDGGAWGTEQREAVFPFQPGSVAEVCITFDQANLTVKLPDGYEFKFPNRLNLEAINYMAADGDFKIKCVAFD
T2 sequence (P17931 whole entry): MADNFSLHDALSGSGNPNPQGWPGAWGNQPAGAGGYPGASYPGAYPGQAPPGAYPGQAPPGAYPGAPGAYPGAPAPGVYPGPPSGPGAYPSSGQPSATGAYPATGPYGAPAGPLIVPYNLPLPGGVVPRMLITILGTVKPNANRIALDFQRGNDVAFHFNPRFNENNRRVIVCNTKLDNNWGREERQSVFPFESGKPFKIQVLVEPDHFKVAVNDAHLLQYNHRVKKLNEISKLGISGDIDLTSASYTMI
T3 sequence (O00182 17-148 limits assumed): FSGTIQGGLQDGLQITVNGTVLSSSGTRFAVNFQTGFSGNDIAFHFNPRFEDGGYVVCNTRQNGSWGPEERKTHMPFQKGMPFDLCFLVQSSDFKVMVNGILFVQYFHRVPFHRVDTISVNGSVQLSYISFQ
T5 sequence (O00182 227-355 limits assumed): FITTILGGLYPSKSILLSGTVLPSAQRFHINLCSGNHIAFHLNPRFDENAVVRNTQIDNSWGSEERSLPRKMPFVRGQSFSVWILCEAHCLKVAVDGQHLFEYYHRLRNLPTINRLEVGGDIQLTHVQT

Row | Compound | V − V0 Value (Galectin-1) [µL] | V − V0 Value (Galectin-3) [µL] | binding to galectin-3 (in words) (Galectin-3) | binding to galectin-3 (in words) (Galectin-3; listed as chondroitin) | V − V0 Value (Galectin-9N) [µL] | binding to galectin-9N (in words) (Galectin-9N) | binding to galectin-9N (in words) (Galectin-9N; listed as chondroitin) | V − V0 Value (Galectin-8C) [µL] | V − V0 Value (Galectin-9C) [µL] | V − V0 Value (Galectin-8N) [µL] | binding to galectin-9C (in words) (Galectin-9C) | binding to the tested galectin molecules (in words) [1] | binding to galectin-1 (in words) (Galectin-1; [2]) | binding to galectin-8N (in words) (Galectin-8N; [2])
1 | Chondroitin | <5.0 | 19.2 ± 2.2 | bind | length-dependent binding affinity | 171.4 ± 19.0 | bind | particularly strong binding affinity | <5.0 | <5.0 | <5.0 |  |  |  | 
2 | cartilage type keratan sulfate [KS-II] | <5.0 | 10.1 ± 1.1 | weaker than their binding with KS-I; also recorded: showed binding affinity |  | 10.4 ± 0.3 | weaker than their binding with KS-I; also recorded: showed binding affinity |  | <5.0 | 6.4 ± 1.0 | <5.0 | weaker than their binding with KS-I; also recorded: showed binding affinity |  |  | 
3 | CC(=O)N[C@H]1[C@H](O[C@H]2[C@@H](O)[C@@H](COS(=O)(=O)O)O[C@@H](O[C@H]3[C@H](O)[C@@H](NC(C)=O)C(O)O[C@@H]3COS(=O)(=O)O)[C@@H]2O)O[C@H](COS(=O)(=O)O)[C@@H](O)[C@@H]1O (stereo partly drawn) [G4L4, GlcNAc6S β1-3 Gal6S β1-4 GlcNAc6S] | <5.0 | <5.0 |  |  | <5.0 |  |  | <5.0 | <5.0 | <5.0 |  | did not bind |  | 
4 | CC(=O)NC1C(OC2C(C(=O)O)OC(OC3C(O)C(CO)OC(OC4C(C(=O)O)OC(OC5C(O)C(CO)OC(OC6C(C(=O)O)OC(OC7C(O)C(CO)OC(OC8C(C(=O)O)OC(OC9C(O)C(CO)OC(OC%10C(C(=O)O)OC(OC%11C(O)C(CO)OC(O)C%11NC(C)=O)C(O)C%10O)C9NC(C)=O)C(O)C8O)C7NC(C)=O)C(O)C6O)C5NC(C)=O)C(O)C4O)C3NC(C)=O)C(O)C2O)OC(CO)C(O)C1O (stereo not drawn) [CH11, (GalNAc β1-4 GlcA β1-3)5 GalNAc] |  | 21.4 ± 4.2 |  |  | 218.8 |  |  |  |  |  |  |  |  | 
5 | CC(=O)N[C@H]1[C@H](O[C@H]2[C@H](O)[C@@H](O)[C@H](O[C@H]3[C@@H](O)[C@@H](CO)OC(O)[C@@H]3NC(C)=O)O[C@@H]2C(=O)O)O[C@H](CO)[C@H](O)[C@@H]1O (stereo partly drawn) [CH3, GalNAc β1-4 GlcA β1-3 GalNAc] | <5.0 | <5.0 |  |  | 49.6 ± 8.2 |  |  |  |  |  |  |  |  | 
6 | cornea type keratan sulfate [KS-I] | 10.3 ± 4.5 | 21.7 ± 4.3 | bound; also recorded: showed binding affinity |  | 105.3 ± 22.6 | bound; also recorded: showed binding affinity |  | <5.0 | 12.2 ± 1.0 | <5.0 | bound; also recorded: showed binding affinity |  | bound; also recorded: showed binding affinity | showed binding affinity
7 | CC(=O)NC1C(OC2C(C(=O)O)OC(OC3C(O)C(CO)OC(OC4C(C(=O)O)OC(OC5C(O)C(CO)OC(OC6C(C(=O)O)OC(OC7C(O)C(CO)OC(OC8C(C(=O)O)OC(OC9C(O)C(CO)OC(O)C9NC(C)=O)C(O)C8O)C7NC(C)=O)C(O)C6O)C5NC(C)=O)C(O)C4O)C3NC(C)=O)C(O)C2O)OC(CO)C(O)C1O (stereo not drawn) [CH9, (GalNAc β1-4 GlcA β1-3)4 GalNAc] | <5.0 | 15.6 ± 2.5 |  |  | 199.4 |  |  |  | <5.0 |  |  |  |  | 
8 | CC(=O)N[C@H]1[C@H](O[C@H]2[C@H](O)[C@@H](O)[C@H](O[C@H]3[C@@H](O)[C@@H](CO)O[C@@H](O[C@H]4[C@H](O)[C@@H](O)[C@H](O[C@H]5[C@@H](O)[C@@H](CO)O[C@@H](O[C@H]6[C@H](O)[C@@H](O)[C@H](O[C@H]7[C@@H](O)[C@@H](CO)OC(O)[C@@H]7NC(C)=O)O[C@@H]6C(=O)O)[C@@H]5NC(C)=O)O[C@@H]4C(=O)O)[C@@H]3NC(C)=O)O[C@@H]2C(=O)O)O[C@H](CO)[C@H](O)[C@@H]1O (stereo partly drawn) [CH7, (GalNAc β1-4 GlcA β1-3)3 GalNAc] | <5.0 | 10.7 ± 1.9 |  |  | 146.4 |  |  |  | <5.0 |  |  |  |  | 
9 | CC(=O)N[C@H]1[C@H](O[C@H]2[C@H](O)[C@@H](O)[C@H](O[C@H]3[C@@H](O)[C@@H](CO)O[C@@H](O[C@H]4[C@H](O)[C@@H](O)[C@H](O[C@H]5[C@@H](O)[C@@H](CO)OC(O)[C@@H]5NC(C)=O)O[C@@H]4C(=O)O)[C@@H]3NC(C)=O)O[C@@H]2C(=O)O)O[C@H](CO)[C@H](O)[C@@H]1O (stereo partly drawn) [CH5, (GalNAc β1-4 GlcA β1-3)2 GalNAc] | <5.0 | <5.0 |  |  | 45.6 ± 4.6 |  |  |  |  |  |  |  |  | 
10 | CC(=O)N[C@H]1[C@H](O[C@H]2[C@H](O)[C@@H](O)[C@H](O[C@H]3[C@@H](O)[C@@H](CO)O[C@@H](O[C@H]4[C@H](O)[C@@H](O)[C@H](O[C@H]5[C@@H](O)[C@@H](CO)O[C@@H](O[C@H]6[C@H](O)[C@@H](O)[C@H](O[C@H]7[C@@H](O)[C@@H](CO)OC(O)[C@@H]7NC(C)=O)O[C@@H]6C(=O)O)[C@@H]5NC(C)=O)O[C@@H]4C(=O)O)[C@@H]3NC(C)=O)O[C@@H]2C(=O)O)O[C@H](CO)[C@H](O)[C@@H]1O[C@@H]1O[C@H](C(=O)O)[C@@H](O)[C@H](O)[C@H]1O (stereo partly drawn) [CH8, GlcA β1-3 (GalNAc β1-4 GlcA β1-3)3 GalNAc] | <5.0 | 7.8 ± 1.9 |  |  | 116.2 |  |  |  | <5.0 |  |  |  |  | 
11 | CC(=O)NC1C(O)OC(CO)C(O)C1OC1OC(C(=O)O)C(OC2OC(CO)C(O)C(OC3OC(C(=O)O)C(OC4OC(CO)C(O)C(OC5OC(C(=O)O)C(OC6OC(CO)C(O)C(OC7OC(C(=O)O)C(OC8OC(CO)C(O)C(OC9OC(C(=O)O)C(OC%10OC(CO)C(O)C(OC%11OC(C(=O)O)C(O)C(O)C%11O)C%10NC(C)=O)C(O)C9O)C8NC(C)=O)C(O)C7O)C6NC(C)=O)C(O)C5O)C4NC(C)=O)C(O)C3O)C2NC(C)=O)C(O)C1O (stereo not drawn) [CH12, GlcA β1-3 (GalNAc β1-4 GlcA β1-3)5 GalNAc] |  | 16.8 ± 2.1 |  |  | 196.0 |  |  |  |  |  |  |  |  | 
